# Source: US6653305B2, “Bicyclic heterocycles, pharmaceutical compositions containing them, their use, and processes for preparing them” (Boehringer Ingelheim Pharma KG, priority 2000, dated 2003)
# Molecular target: T1, human EGF-R (Homo sapiens, UniProt P00533)
# T1 construct: expressed in transfected cells; host or cells: F/L-HERc cells (murine IL-3-dependent FDC-P1 line transduced with LXSN retroviral vector carrying human EGF-R cDNA; packaging line GP+E86)
# Test: Inhibition of EGF-dependent proliferation of F/L-HERc cells (Cell Titer 96 assay)
# Format: cell-based
# Conditions: F/L-HERc cells (murine IL-3-dependent line expressing human EGF-R), stimulated with EGF 20 ng/ml, 48 hours at 37° C.
# Description: A cell line of murine origin dependent on interleukin-3-(IL-3) which was genetically modified to express functional human EGF-R was used here. The proliferation of these cells known as F/L-HERc can therefore be stimulated either by murine IL-3 or by EGF (cf. T. von Rüden et al. in EMBO J. 7, 2749-2756 (1988) and J. H. Pierce et al. in Science 239, 628-631 (1988)).
# The starting material used for the F/L-HERc cells was the cell line FDC-P1, the production of which has been described by T. M. Dexter et al. in J. Exp. Med. 152, 1036-1047 (1980). Alternatively, however, other growth-factor-dependent cells may also be used (cf., for example, J. H. Pierce et al. in Science 239, 628-631 (1988), H. Shibuya et al. in Cell 70, 57-67 (1992) and W. S. Alexander et al. in EMBO J. 10, 3683-3691 (1991)). For expressing the human EGF-R cDNA (cf. A. Ullrich et al. in Nature 309, 418-425 (1984)) recombinant retroviruses were used as described by T. von Rüden et al., EMBO J. 7, 2749-2756 (1988), except that the retroviral vector LXSN (cf. A. D. Miller et al. in BioTechniques 7, 980-990 (1989)) was used for the expression of the EGF-R cDNA and the line GP+E86 (cf. D. Markowitz et al. in J. Virol. 62, 1120-1124 (1988)) was used as the packaging cell.
# The test was performed as follows:
# F/L-HERc cells were cultivated in RPMI/1640 medium (Bio Whittaker), supplemented with 10% fetal calf serum (FCS, Boehringer Mannheim), 2 mM glutamine (Bio Whittaker), standard antibiotics and 20 ng/ml of human EGF (Promega), at 37° C. and 5% CO2. In order to investigate the inhibitory activity of the compounds according to the invention, 1.5×10^4 cells per well were cultivated in triplicate in 96-well dishes in the above medium (200 μl), the cell proliferation being stimulated with either EGF (20 ng/ml) or murine IL-3. […]
# In order to determine the inhibitory activity of the compounds according to the invention the relative cell number was measured in O.D. units using the Cell Titer 96™ Aqueous Non-Radioactive Cell Proliferation Assay (Promega). […]
# T1 sequence (P00533 25-1210): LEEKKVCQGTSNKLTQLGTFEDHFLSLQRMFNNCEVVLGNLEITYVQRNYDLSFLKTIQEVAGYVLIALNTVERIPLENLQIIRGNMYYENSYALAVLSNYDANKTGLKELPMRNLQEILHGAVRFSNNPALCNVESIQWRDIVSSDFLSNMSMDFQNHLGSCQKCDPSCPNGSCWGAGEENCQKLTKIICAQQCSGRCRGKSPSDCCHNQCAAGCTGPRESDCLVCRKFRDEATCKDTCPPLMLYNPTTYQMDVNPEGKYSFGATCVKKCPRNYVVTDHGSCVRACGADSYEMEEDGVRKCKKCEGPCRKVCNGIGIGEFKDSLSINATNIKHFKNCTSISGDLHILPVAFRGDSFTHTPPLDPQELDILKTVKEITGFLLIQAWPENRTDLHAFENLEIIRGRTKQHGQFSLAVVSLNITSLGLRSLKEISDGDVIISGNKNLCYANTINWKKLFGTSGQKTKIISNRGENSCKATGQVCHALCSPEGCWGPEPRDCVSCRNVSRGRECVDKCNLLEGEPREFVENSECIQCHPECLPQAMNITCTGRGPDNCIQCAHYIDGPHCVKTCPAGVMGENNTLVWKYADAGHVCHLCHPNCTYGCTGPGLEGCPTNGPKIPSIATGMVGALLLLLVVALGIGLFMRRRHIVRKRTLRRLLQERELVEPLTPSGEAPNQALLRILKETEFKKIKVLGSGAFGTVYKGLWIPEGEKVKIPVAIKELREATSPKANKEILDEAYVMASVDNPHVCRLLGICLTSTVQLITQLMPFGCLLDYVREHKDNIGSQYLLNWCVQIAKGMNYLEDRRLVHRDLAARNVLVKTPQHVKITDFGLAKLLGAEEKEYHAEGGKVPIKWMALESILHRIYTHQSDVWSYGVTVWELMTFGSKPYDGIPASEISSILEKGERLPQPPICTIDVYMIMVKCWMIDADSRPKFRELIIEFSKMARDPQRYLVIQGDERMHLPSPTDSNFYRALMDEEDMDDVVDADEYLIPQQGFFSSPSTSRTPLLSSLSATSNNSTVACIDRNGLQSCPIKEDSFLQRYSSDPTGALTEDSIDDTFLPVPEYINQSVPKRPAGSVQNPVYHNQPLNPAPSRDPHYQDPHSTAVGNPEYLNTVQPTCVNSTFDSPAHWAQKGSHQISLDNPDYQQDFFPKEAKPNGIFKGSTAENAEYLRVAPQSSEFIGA
row,Compound,IC50
1,"C[C@@H]1CN(CC=CC(=O)Nc2cc3c(Nc4ccc(F)c(Cl)c4)ncnc3cc2OCC2CC2)CC(=O)O1 [2(1), 4-[(3-chloro-4-fluorophenyl)amino]-6-{[4-((R)-6-methyl-2-oxomorpholin-4-yl)-1-oxo-2-buten-1-yl]amino}-7-cyclopropylmethoxyquinazoline]",9 nM
2,"CN(CC=CC(=O)Nc1cc2c(Nc3ccc(F)c(Cl)c3)ncnc2cc1OCC1CC1)CC1OCCO1 [1(2), 4-[(3-chloro-4-fluorophenyl)amino]-6-[(4-{N-[(1,3-dioxolan-2-yl)methyl]-N-methylamino}-1-oxo-2-buten-1-yl)amino]-7-cyclopropylmethoxyquinazoline]",0.02 nM
3,"C[C@H]1CN(CC=CC(=O)Nc2cc3c(Nc4ccc(F)c(Cl)c4)ncnc3cc2OCC2CC2)CC(=O)O1 [Example 2, 4-[(3-chloro-4-fluorophenyl)amino]-6-{[4-((S)-6-methyl-2-oxomorpholin-4-yl)-1-oxo-2-buten-1-yl]amino}-7-cyclopropylmethoxyguinazoline]",15 nM

# Test system: not given
# Test: not given
# Conditions: not given
row,Compound,melting point
1,"CN(CC=CC(=O)Nc1cc2c(Nc3ccc(F)c(Cl)c3)ncnc2cc1OCC1CC1)CC1OCCO1 [1(2), 4-[(3-chloro-4-fluorophenyl)amino]-6-[(4-{N-[(1,3-dioxolan-2-yl)methyl]-N-methylamino}-1-oxo-2-buten-1-yl)amino]-7-cyclopropylmethoxyquinazoline]",121 °C
2,"C[C@@H]1CN(CC=CC(=O)Nc2cc3c(Nc4ccc(F)c(Cl)c4)ncnc3cc2O[C@@H]2CCOC2)CC(=O)O1 [Example 2(7), 4-[(3-chloro-4-fluorophenyl)amino]-6-{[4-((R)-6-methyl-2-oxomorpholin-4-yl)-1-oxo-2-buten-1-yl]amino}-7-[(R)-(tetrahydrofuran-3-yl)oxy]quinazoline]",230 °C
3,"C[C@@H]1CN(CC=CC(=O)Nc2cc3c(Nc4ccc(F)c(Cl)c4)ncnc3cc2OCC2CCOCC2)CC(=O)O1 [Example 2(19), 4-[(3-chloro-4-fluorophenyl)amino]-6-{[4-((R)-6-methyl-2-oxomorpholin-4-yl)-1-oxo-2-buten-1-yl]amino}-7-[(tetrahydropyran-4-yl)methoxy]quinazoline]",196 °C
4,"C[C@H]1CN(CC=CC(=O)Nc2cc3c(Nc4ccc(F)c(Cl)c4)ncnc3cc2OCC2CCOCC2)CC(=O)O1 [Example 2(21), 4-[(3-chloro-4-fluorophenyl)amino]-6-{[4-((S)-6-methyl-2-oxomorpholin-4-yl)-1-oxo-2-buten-1-yl]amino}-7-[(tetrahydropyran-4-yl)methoxy]quinazoline]",196 to 199 °C
5,"C[C@H]1C(=O)OCCN1CC=CC(=O)Nc1cc2c(Nc3ccc(F)c(Cl)c3)ncnc2cc1OCC1CC1 [Example 2(2), 4-[(3-chloro-4-fluorophenyl)amino]-6-{[4-((S)-3-methyl-2-oxomorpholin-4-yl)-1-oxo-2-buten-1-yl]amino}-7-cyclopropylmethoxyquinazoline]",182 °C
